Earlier results as cited in patent publication US6852845B1, “Method of identifying toxic agents using NSAID-induced differential gene expression in liver” (Curagen Corporation, priority 1999, dated 2005).

How the values were obtained:
liver [1] = conditions: risk class assigned to each NSAID (low, very low, overdose risk)
liver [2] = conditions: injury type classes of Table 5: hepatocellular damage, cholestasis, elevated transaminase level

Row | SMILES | Hepatotoxicity Risk of NSAIDs: Risk (liver [1]) | type of hepatoxicity injury induced by the NSAID (liver [2])
1 | CCCCC1C(=O)N(c2ccccc2)N(c2ccccc2)C1=O [Phenylbutazone] | Low Risk | 
2 | CC(=O)Oc1ccccc1C(=O)O [Acetylsalicylic Acid] | Overdose Risk | 
3 | CC(C(=O)O)c1ccc2oc(-c3ccc(Cl)cc3)nc2c1 (stereo not shown) [Benoxaprofen] | Low Risk | cholestatis-inducing
4 | Cc1cc(CC(=O)O)n(C)c1C(=O)c1ccc(Cl)cc1 [Zomepirac] | Very Low Risk | elevated transaminase level
5 | O=C(O)CCc1nc(-c2ccccc2)c(-c2ccccc2)o1 [Oxaprozin] | Very Low Risk | 
6 | CC(C(=O)O)c1ccc(-c2ccccc2)c(F)c1 (stereo not shown) [Flurbiprofen] | Very Low Risk | hepatocellular damage
7 | Cc1ccc(Cl)c(Nc2ccccc2C(=O)O)c1Cl [Meclofenamate] | Very Low Risk | 
8 | Cc1ccc(C(=O)c2ccc(CC(=O)O)n2C)cc1 [Tolmentin] | Very Low Risk | 
9 | CC(C(=O)O)c1ccc(C(=O)c2cccs2)cc1 (stereo not shown) [Suprofen] | Very Low Risk | 
10 | CC1=C(CC(=O)O)c2cc(F)ccc2/C1=C\c1ccc([S+](C)[O-])cc1 (stereo not shown) [Sulindac] | Low Risk | cholestatis-inducing
11 | Cc1cccc(Nc2ccccc2C(=O)O)c1C [Mefenamic Acid] | Very Low Risk | elevated transaminase level
12 | CN1C(C(=O)Nc2ccccn2)=C(O)c2sccc2S1(=O)=O [Tenoxicam] | Very Low Risk | elevated transaminase level
13 | COc1ccc2c(c1)c(CC(=O)O)c(C)n2C(=O)c1ccc(Cl)cc1 [Indomethacin] | Very Low Risk | 
14 | CCOc1ccc(NC(C)=O)cc1 [Phenacetin] | Overdose Risk | 
15 | CC(C(=O)O)c1cccc(C(=O)c2ccccc2)c1 (stereo not shown) [Ketoprofen] | Very Low Risk | 
16 | CC(C(=O)O)c1cccc(Oc2ccccc2)c1 (stereo not shown) [Fenoprofen] | Very Low Risk | 
17 | Nc1c(CC(=O)O)cccc1C(=O)c1ccc(Br)cc1 [Bromfenac] | Low Risk | 
18 | O=C(O)Cc1ccccc1Nc1c(Cl)cccc1Cl [Diclofenac] | Low Risk | 
19 | COc1ccc2cc(CCC(C)=O)ccc2c1 [Nabumetone] | Very Low Risk | cholestatis-inducing
20 | CCc1cccc2c3c([nH]c12)C(CC)(CC(=O)O)OCC3 (stereo not shown) [Etodolac] | Very Low Risk | 
21 | CN1C(C(=O)Nc2ccccn2)=C(O)c2ccccc2S1(=O)=O [Piroxicam] | Very Low Risk | 
